Results from patent US20110263696A1, “PROANTHOCYANIDINS FROM CINNAMON AND ITS WATER SOLUBLE EXTRACT INHIBIT TAU AGGREGATION” (priority 2007, published 2011).

Key:
tau fragment (tau 187) = target: T1, tau fragment (tau 187) (Homo sapiens, UniProt P10636); assay: Thioflavin T fluorescence assay of tau aggregation; format: biochemical
T1 construct: his; made in house; host or cells: bacteria
Description: In one illustrative embodiment of the invention, the effects of cinnamon proanthocyanidin or its extract can be determined by fluorescence measurements in the presence of a thioflavin derivative. If aggregation proceeds through formation of an ordered structure, enhancement of thioflavin occurs. This method can be used to quantify the effects of the proanthocyanidins on the rate and extent of tau aggregation.
An alternative method is to incubate tau in the absence of thioflavin under conditions that cause aggregation in the absence and presence of cinnamon proanthocyanidin. At different times aliquots are removed to measure the aggregation by examining the fluorescence of thioflavin T added to these aliquots. As thioflavin can affect aggregation itself and could compete partly with binding of proanthocyanidin this modified assay could maximize the effect of proanthocyanidin. Because it would necessitate removing aliquots from the reaction at different times and mixing in new reagents, it is less convenient and prone to additional errors.
This conclusion was reached by measuring changes in fluorescence of thioflavin T under conditions well documented to cause formation of tau aggregates.

tau187 = target: T2, tau187 (Homo sapiens, UniProt P10636); assay: UV absorbance spectra, binding to tau; conditions: trimer 15 uM, 0-17.6 uM tau187, isosbestic point
T2 construct: his; made in house; host or cells: bacteria
T2 sequence (P10636 572-758 limits assumed): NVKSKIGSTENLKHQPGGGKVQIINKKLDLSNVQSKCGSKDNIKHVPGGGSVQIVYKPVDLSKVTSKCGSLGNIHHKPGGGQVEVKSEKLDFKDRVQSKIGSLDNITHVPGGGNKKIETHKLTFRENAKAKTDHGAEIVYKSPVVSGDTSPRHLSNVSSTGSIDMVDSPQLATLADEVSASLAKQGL
Description: FIG. 2. UV absorbance spectra of purified A-type proanthocyanidin trimer as a function of increasing tau concentration. The curves from top to bottom (at A280) are as follows: 0 uM; 4.4 uM; 8.8 uM; 17.6 uM tau^187; proanthocyanidin trimer=15 uM. As is known in the art, the isobestic points are found where the curves overlap.
As shown by the data disclosed in the various figures, proanthocyanidins bind to tau and inhibit tau aggregation. In illustrative experiments, full-length tau and an engineered truncation fragment of tau (tau187) were generated by over-expression of the recombinant human protein in bacteria followed by purification to homogeneity by conventional chromatography. […] The UV spectra display an isosbestic point consistent with a specific binding mechanism. […] In these experiments, heparin-induced aggregation of tau into PHF-like fibers is routinely monitored by four methods: 1) enhanced Thioflavin S fluorescence emission; 2) increased turbidity measured by OD350; 3) ultracentrifugation of sarkosyl-treated samples, and 4) electron microscopy. […] To ensure that proanthocyanidin molecules were not simply binding to and precipitating tau in a non-specific manner, the amount of tau that fractionated with the pellet vs. supernatant after high-speed ultracentrifugation was analyzed.

FL-tau = target: T3, FL-tau (Homo sapiens, UniProt P10636); assay: Turbidity assay of heparin-induced aggregation, FL-tau; format: biochemical; conditions: FL-tau 50 uM, heparin 0.1 mg/ml, pH 7.0; trimer 200 uM (FIG. 3a)
T3 construct: full-length tau and an engineered truncation fragment of tau (tau187) were generated by over-expression of the recombinant human protein in bacteria; made in house; host or cells: bacteria
T3 sequence (P10636 1-441 isoform P10636-8): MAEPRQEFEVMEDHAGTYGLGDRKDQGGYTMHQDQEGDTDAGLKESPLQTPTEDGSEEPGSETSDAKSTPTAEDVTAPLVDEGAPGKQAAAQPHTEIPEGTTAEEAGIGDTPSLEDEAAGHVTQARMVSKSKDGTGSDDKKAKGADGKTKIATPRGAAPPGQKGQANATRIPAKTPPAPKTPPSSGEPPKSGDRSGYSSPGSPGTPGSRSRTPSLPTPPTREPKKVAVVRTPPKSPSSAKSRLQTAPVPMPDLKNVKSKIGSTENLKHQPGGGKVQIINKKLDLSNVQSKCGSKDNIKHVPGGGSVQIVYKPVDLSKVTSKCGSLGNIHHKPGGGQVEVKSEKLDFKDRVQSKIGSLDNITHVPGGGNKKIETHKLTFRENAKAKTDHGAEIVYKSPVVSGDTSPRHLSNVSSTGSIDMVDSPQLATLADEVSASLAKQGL
Description: (§1) FIG. 3. Proanthocyanidins inhibit tau aggregation. A) Turbidity assay. Aggregation of FL-tau (50 uM) was initiated with heparin (0.1 mg/ml) in 20 mM NaPO4, pH 7.0. Curve 1: no proanthocyanidin; Curve 2: 200 uM purified A-type trimer. B) After 45 min, reactions were centrifuged at 100,000 g×60 min. The amount of tau in the pellets (P) vs. supernatants (S) were examined by SDS-PAGE. Markers (top to bottom) are 97, 66, 45 kDa. C, D) EM after aggregation for 45 min. Scale bars=500 nm; C) no proanthocyanidin, D) 200 uM purified A-type trimer.
(§2) As shown by the data disclosed in the various figures, proanthocyanidins bind to tau and inhibit tau aggregation. […] In these experiments, heparin-induced aggregation of tau into PHF-like fibers is routinely monitored by four methods: 1) enhanced Thioflavin S fluorescence emission; 2) increased turbidity measured by OD350; 3) ultracentrifugation of sarkosyl-treated samples, and 4) electron microscopy. […] To ensure that proanthocyanidin molecules were not simply binding to and precipitating tau in a non-specific manner, the amount of tau that fractionated with the pellet vs. supernatant after high-speed ultracentrifugation was analyzed.

Full-length tau = target: T4, Full-length tau (Homo sapiens, UniProt P10636); assay: Ultracentrifugation and SDS-PAGE of pellet vs supernatant, full-length tau; format: biochemical; conditions: 200 uM trimer; 45 min; 100,000 g x 60 min (FIG. 3b)
T4 construct: full-length tau and an engineered truncation fragment of tau (tau187) were generated by over-expression of the recombinant human protein in bacteria; made in house; host or cells: bacteria
T4 sequence (P10636 1-441 isoform P10636-8): as above
Description: as §1
FIG. 4. Cinnamon extract inhibits tau aggregation. […] Samples were then treated with 1% sarkosyl for 1 hr, centrifuged (105,000 g×1 hr), and the pellets (P) versus supernatants (S) then analyzed by SDS-PAGE. […]
as §2

adipocyte cells = conditions: 0.1 mg/ml PA trimer; Graves et al. 2001; cited from earlier work
[1] = tested on: Full-length tau or tau 187; assay: Gel electrophoresis of sarkosyl pellets vs supernatants; format: biochemical, human
Sequence of Full-length tau or tau 187 (P10636 572-758 limits assumed): as the sequence (P10636 572-758 limits assumed) above
Description: In one illustrative embodiment of the invention, gel electrophoresis also can be used to study effects on aggregation. The advantage here is that simple equipment is needed for these measurements but the system provides less definition of the effects of the inhibitors than electron microscopy. Full-length tau or tau 187 (50 uM) is induced to undergo aggregation with heparin (0.1 mg/ml) for 16 hours at room temperature in the presence of varying concentrations of cinnamon extract or cinnamon proanthocyanidin type A trimer. Samples are then treated with 1% sarkosyl for 1 hr, centrifuged (105,000 g×1 hr), and the pellets (P) versus supernatants (S) then analyzed by SDS-PAGE. The increase in the ratio of tau in the pellet compared to the supernatant is a measure of aggregation and cinnamon extract or purified proanthocyanidin is found to decrease this ratio.

tau polypeptides = assay: Light scattering measurements (absorbance at 350 nm) of tau aggregation; format: biochemical, human
Sequence of tau polypeptides (P10636 572-758 limits assumed): as above
Description: FIG. 11. Dose response of cinnamon (oxidized) on tau aggregation. […] In this experiment, cinnamon was incubated overnight in 10 mM NH4OH.
FIG. 12. Effect of cinnamon A trimer on light scattering of tau.
In one illustrative embodiment of the invention, the effects of cinnamon extract or purified cinnamon proanthocyanidins on tau aggregation can be followed readily in a spectrophotometer by measuring the change in absorbance at 350 nm. The association of tau promoted by heparin causes an increase in absorbance. […] Different buffers and temperatures may be used if desired to study factor influencing aggregation.

T1 sequence (P10636 572-758 limits assumed): as above

In the case of “A-linked proanthocyanidin trimer [A-type trimer]”, the “Inhibition of tau 187 aggregation by thioflavin T fluorescence” value (tau fragment (tau 187)) is reported as “reduces aggregation of tau”, the “Binding to tau by change in UV absorbance spectrum” value (tau187) is reported as “displays affinity for monomeric tau” and the “Binding to tau by change in UV absorbance spectrum” value (tau187; listed as proanthocyanidin A) is reported as “binds directly to tau”. The “Inhibition of FL-tau aggregation (turbidity)” value (FL-tau) was “dramatically inhibited”, the “Tau in pellet vs supernatant after ultracentrifugation” value (Full-length tau) was “remain in the soluble fraction” and the Glucose uptake (adipocyte cells) was “increase in glucose uptake”. For the same substance, the “Tau aggregation by gel electrophoresis” value [1] was “less aggregation of tau” and the “Inhibition of tau aggregation by light scattering” value (tau polypeptides) was “inhibits the aggregation”.
